Source: patent publication US10947188B2, “Small molecule ferroptosis inducers” (THE TRUSTEES OF COLUMBIA UNIVERSITY IN THE CITY OF NEW YORK, priority 2016, dated 2021)

What was measured:
[1] = Cobalt (II) binding assay in vitro (absorbance spectrum); conditions: absorbance 300-700 nm
Procedure: For each cluster I compound (CIL13, −52, and −64), prepared two-fold dilution series with DMSO. We added 30 μL per well of either water or 10 μM cobalt (II) chloride solution to each well of a 384-well plate. Dilution series of each compound in DMSO were added by 10 μL per well. After solutions had been mixed by shaking of the plate using a Victor 3 plate reader (PerkinElmer), absorbance was scanned between 300 and 700 nm for each compound. Finally the following Absorbance value for each compound was plotted (see FIG. 9B):
[formula] where Abs is the absorbance at each wavelength. Search of Commercially Available Structural Analogs of CIL41/70.

HT-1080 = assay: Modulatory profiling: Alamar Blue viability, lethal compound cotreated with death modulator (EC50, AUC); assay type: cell-based; design: AUC, modulator HT.3MA / AUC, modulator HT.ALLN / AUC HT.ATA / AUC HT.ActD / AUC HT.BHA / AUC HT.BHT / AUC HT.BocD / AUC HT.CHX / AUC HT.Co2+ / AUC HT.DPQ / AUC HT.EGTA / AUC HT.Lmim / AUC HT.NAD+ / AUC HT.Nec-1 / AUC HT.SP600125 / AUC HT.TLCK / AUC HT.U0126: unit not given beside the values
BJeLR = assay: as above; assay type: cell-based, human; design: AUC, modulator BJ.Gd3+ / AUC, modulator BJ.LNAME / AUC, modulator BJ.Lmin / AUC, modulator BJ.3MA / AUC, modulator BJ.ALLN / AUC, modulator BJ.Boc D / AUC, modulator BJ.CHX / AUC, modulator BJ.Co2+ / AUC, modulator BJ.Nec-1 / AUC, modulator BJ.Pepstatin / AUC, modulator BJ.TLCK / AUC, modulator BJ.atoc / AUC, modulator BJ.trolox / AUC, modulator BJ.zVAD: unit not given beside the values; conditions: BJeLR cells, modulatory profile value (AUC)

binding to cobalt (II) in vitro [1]: bound to cobalt (II) in vitro
SMILES: C/C(=N\Nc1ncc(Cl)cc1Cl)c1ccccn1 [CIL64]
AUC HT.ATA (HT-1080; HT-1080, modulator ATA): 0.1979 | AUC HT.ActD (HT-1080; HT-1080, modulator ActD): 0.04802 | AUC HT.BHA (HT-1080; HT-1080, modulator BHA): −0.1469 | AUC HT.BHT (HT-1080; HT-1080, modulator BHT): −0.3128 | AUC HT.BocD (HT-1080; HT-1080, modulator BocD): −0.1078 | AUC HT.CHX (HT-1080; HT-1080, modulator CHX): 0.06685 | AUC HT.Co2+ (HT-1080; HT-1080, modulator Co2+): 0.4161 | AUC HT.CspA (HT-1080; HT-1080, modulator CspA): 0.08661 | AUC HT.DPQ (HT-1080; HT-1080, modulator DPQ): −0.135 | AUC HT.EGTA (HT-1080; HT-1080, modulator EGTA): 0.1842 | AUC HT.Gd3+ (HT-1080; HT-1080, modulator Gd3+): −0.0263 | AUC HT.LNAME (HT-1080; HT-1080, modulator LNAME): <0.2159 | AUC HT.Lmim (HT-1080; HT-1080, modulator Lmim): −0.2705 | AUC HT.NAD+ (HT-1080; HT-1080, modulator NAD+): −0.1971 | AUC HT.NMMA (HT-1080; HT-1080, modulator NMMA): −0.1742 | HT.atoc (AUC) (HT-1080; HT-1080, modulator atoc): −0.06249 | HT.bCarotene (AUC) (HT-1080; HT-1080, modulator bCarotene): 0.1654 | HT.deferox (AUC) (HT-1080; HT-1080, modulator deferox): 0.127 | HT.digoxin (AUC) (HT-1080; HT-1080, modulator digoxin): 0.0348 | HT.trolox (AUC) (HT-1080; HT-1080, modulator trolox): −0.08079 | HT.zVAD (AUC) (HT-1080; HT-1080, modulator zVAD): 0.05557 | effect of cobalt (II) on lethality (HT-1080; modulatory profiles, CoCl2 supplementation): inhibited by cobalt (II) | AUC, modulator BJ.3MA (BJeLR; lethal compound cotreated with modulator 3MA): 0.02465 | AUC, modulator BJ.ALLN (BJeLR; lethal compound cotreated with modulator ALLN): 0.0142 | AUC, modulator BJ.Boc D (BJeLR; lethal compound cotreated with modulator Boc D): 0.01108 | AUC, modulator BJ.CHX (BJeLR; lethal compound cotreated with modulator CHX): 0.04712 | AUC, modulator BJ.Co2+ (BJeLR; lethal compound cotreated with modulator Co2+): 0.9402 | AUC, modulator BJ.DPQ (BJeLR; lethal compound cotreated with modulator DPQ): 0.009397 | AUC, modulator BJ.Gd3+ (BJeLR; lethal compound cotreated with modulator Gd3+): 0.02721 | AUC, modulator BJ.LNAME (BJeLR; lethal compound cotreated with modulator LNAME): 0.03249 | AUC, modulator BJ.Lmin/NAD+ (BJeLR; lethal compound cotreated with modulator Lmin/NAD+): 0.0757 | AUC, modulator BJ.Lmin (BJeLR; lethal compound cotreated with modulator Lmin): 0.02777 | AUC, modulator BJ.NAD+ (BJeLR; lethal compound cotreated with modulator NAD+): 0.1422 | AUC, modulator BJ.NMMA (BJeLR; lethal compound cotreated with modulator NMMA): 0.001966 | AUC, modulator BJ.Nec-1 (BJeLR; lethal compound cotreated with modulator Nec-1): 0.05533 | AUC, modulator BJ.Pepstatin (BJeLR; lethal compound cotreated with modulator Pepstatin): 0.04262 | AUC, modulator BJ.TLCK (BJeLR; lethal compound cotreated with modulator TLCK): 0.06508
